According to patent publication US12692257B2, “2,4,6-tri-substituted pyrimidine compounds as ATR kinase inhibitors” (BEIJING TIDE PHARMACEUTICAL CO., LTD., priority 2020, dated 2026):
Read-outs that look alike come from different tables or passages of the source.

Legend:
ATR kinase = ATR kinase (Homo sapiens, UniProt Q13535); assay: Assay of ATR kinase activity (time-resolved fluorescence, phosphorylation of p53-derived protein); format: biochemical
Method: Biotinylated protein derived from p53 (Eurofins, art. No.: 14-952) was phosphorylated with ATR kinase. The amount of phosphorylated protein was determined by time-resolved fluorescence in this assay. The amount of phosphorylated protein was detected by anti-p53-phospho-(serine 15)-K-specific antibody (Cisbio, art. No.: 61GSTDLA) and d2 labeled anti-GST antibody (Cisbio, art. No. 61P08KAE). Before the assay, the following working solutions were formulated as required: 1×reaction buffer (20 mM HEPES PH8.0, 1% glycerol, 0.01% Brij-35), dilution buffer (20 mM HEPES PH8.0, 1% glycerol, 0.01% Brij-35, 5 mM DTT and 1% BSA), stop solution (20 mM HEPES PH8.0, 1% glycerol, 0.01% Brij-35, 250 mM EDTA), detection buffer (50 mM HEPES pH7.0, 150 mM NaCl, 267 mM KF, 0.1% sodium cholate, 0.01% Tween-20, 0.0125% sodium azide). The reagents used above were purchased from Sigma or Invitrogen, except for those whose manufacturers were mentioned.
Operations were as follows:
4× serially diluted compound solutions were prepared with 1× reaction buffer to give 9 compound solutions with different concentrations, and 2.5 μL of the 4× serially diluted compound solutions were added to a 384-well analysis plate (784075, Greiner). 4×p53 substrate working solution (40 nM) was prepared with 1× reaction buffer, and 2.5 μL of the 4×p53 substrate working solution was added to a 384-well analysis plate. 4×ATR/ATRIP working solution (12.8 ng/μL) was prepared with dilution buffer, and 2.5 μL of the 4×pATR/ATRIP working solution was added to a 384-well analysis plate. 4×ATP working solution (2 mM) was prepared with deionized water, and 2.5 μL of the 4×ATP working solution was added to a 384-well analysis plate. The plates were incubated at room temperature in dark for 30 minutes. 5 μL of stop solution was added to the 384 analysis plates. Finally, 5 μL of assay mixture (0.084 ng/μL Anti-phospho-p53(ser15)-K and 5 ng/μL Anti-GST-d2) was added to the 384 well analysis plates, and incubated at room temperature overnight. The fluorescence signal was detected with ENVISION (Perkinelmer) instrument (excitation wavelength: 320 nm, emission wavelength: 665 nm and 615 nm). The inhibition rate in each well was calculated by the fluorescence intensity value in each well:ER (Emission Ratio)=(Fluorescence intensity at 665 nm/Fluorescence intensity at 615 nm); inhibition rate=(ER of positive−ER of assay compound)/(ER of positive−ER of negative)×100%. IC50 values of compounds were calculated by standard software for parameter fitting (GraphPad Prism 6.0).

TOV21G (ovarian cancer) = assay: Cell proliferation inhibition in vitro, CellTiter-Glo, TOV21G; format: cell-based; conditions: Homo sapiens, read-out: TOV21G/IC50/μM
Method: (§1) By detecting the effect of compounds on cell activity in vitro in tumor cell lines TOV21G (ovarian cancer) and MV4-11 (leukemia), the inhibitory effect of compounds on cell proliferation was studied in this assay.
(§2) TOV21G cells and MV4-11 cells were purchased from American Type Culture Collection (ATCC).
TOV21G cells were cultured in MCDB105/M199 medium (containing 15% of FBS), and used for assaying when the cell confluence reached 85% or more. About 1000 cells were inoculated in each well of a 96-well culture plate, and cultured for 24 hours. Different concentrations (0-10 μM) of compounds to be assayed were added to treat the cells. Each group was assayed in triplicate. Blank wells (containing medium only) and control wells (inoculated cells without being treated with drug) were set. Cells were cultured for 120 hours. 40 μL of Cell Titer-Glo solutions (Promega, #G7573) were added to each well, and the cells were incubated with shaking for 20 min in the dark. 100 μL of solution was transferred from each well to a 96-well blank plate (Corning, #3917), and the luminescence value was read by Biotek Synergy H1 multifunctional microplate reader.

MV4-11 (leukemia) = assay: Cell proliferation inhibition in vitro, CellTiter-Glo, MV4-11; format: cell-based; conditions: Homo sapiens, read-out: MV4-11/IC50/μM
Method: as §1, §2
MV-4-11 cells were cultured in IMDM medium (containing 20% of FBS). About 10,000 cells were inoculated in each well of a 96-well culture plate, and treated by adding different concentrations (0-10 μM) of compounds to be assayed. Each group was assayed in triplicate. Blank wells (containing medium only) and control wells (inoculated cells without being treated with drug) were set. Cells were cultured for 120 hours. 40 μL of Cell Titer-Glo solutions were added to each well, and the cells were incubated with shaking for 20 min in the dark. 100 μL of solution was transferred from each well to a 96-well blank plate, and the luminescence value was read by Biotek Synergy HI multifunctional microplate reader. Inhibition rate (%)=100%×(control well−assay well)/(control well−blank well)

[1] = TOV21G cells, 120 hours, CellTiter-Glo
[2] = MV4-11 cells, 120 hours, CellTiter-Glo

Sequence of ATR kinase (Q13535 whole entry): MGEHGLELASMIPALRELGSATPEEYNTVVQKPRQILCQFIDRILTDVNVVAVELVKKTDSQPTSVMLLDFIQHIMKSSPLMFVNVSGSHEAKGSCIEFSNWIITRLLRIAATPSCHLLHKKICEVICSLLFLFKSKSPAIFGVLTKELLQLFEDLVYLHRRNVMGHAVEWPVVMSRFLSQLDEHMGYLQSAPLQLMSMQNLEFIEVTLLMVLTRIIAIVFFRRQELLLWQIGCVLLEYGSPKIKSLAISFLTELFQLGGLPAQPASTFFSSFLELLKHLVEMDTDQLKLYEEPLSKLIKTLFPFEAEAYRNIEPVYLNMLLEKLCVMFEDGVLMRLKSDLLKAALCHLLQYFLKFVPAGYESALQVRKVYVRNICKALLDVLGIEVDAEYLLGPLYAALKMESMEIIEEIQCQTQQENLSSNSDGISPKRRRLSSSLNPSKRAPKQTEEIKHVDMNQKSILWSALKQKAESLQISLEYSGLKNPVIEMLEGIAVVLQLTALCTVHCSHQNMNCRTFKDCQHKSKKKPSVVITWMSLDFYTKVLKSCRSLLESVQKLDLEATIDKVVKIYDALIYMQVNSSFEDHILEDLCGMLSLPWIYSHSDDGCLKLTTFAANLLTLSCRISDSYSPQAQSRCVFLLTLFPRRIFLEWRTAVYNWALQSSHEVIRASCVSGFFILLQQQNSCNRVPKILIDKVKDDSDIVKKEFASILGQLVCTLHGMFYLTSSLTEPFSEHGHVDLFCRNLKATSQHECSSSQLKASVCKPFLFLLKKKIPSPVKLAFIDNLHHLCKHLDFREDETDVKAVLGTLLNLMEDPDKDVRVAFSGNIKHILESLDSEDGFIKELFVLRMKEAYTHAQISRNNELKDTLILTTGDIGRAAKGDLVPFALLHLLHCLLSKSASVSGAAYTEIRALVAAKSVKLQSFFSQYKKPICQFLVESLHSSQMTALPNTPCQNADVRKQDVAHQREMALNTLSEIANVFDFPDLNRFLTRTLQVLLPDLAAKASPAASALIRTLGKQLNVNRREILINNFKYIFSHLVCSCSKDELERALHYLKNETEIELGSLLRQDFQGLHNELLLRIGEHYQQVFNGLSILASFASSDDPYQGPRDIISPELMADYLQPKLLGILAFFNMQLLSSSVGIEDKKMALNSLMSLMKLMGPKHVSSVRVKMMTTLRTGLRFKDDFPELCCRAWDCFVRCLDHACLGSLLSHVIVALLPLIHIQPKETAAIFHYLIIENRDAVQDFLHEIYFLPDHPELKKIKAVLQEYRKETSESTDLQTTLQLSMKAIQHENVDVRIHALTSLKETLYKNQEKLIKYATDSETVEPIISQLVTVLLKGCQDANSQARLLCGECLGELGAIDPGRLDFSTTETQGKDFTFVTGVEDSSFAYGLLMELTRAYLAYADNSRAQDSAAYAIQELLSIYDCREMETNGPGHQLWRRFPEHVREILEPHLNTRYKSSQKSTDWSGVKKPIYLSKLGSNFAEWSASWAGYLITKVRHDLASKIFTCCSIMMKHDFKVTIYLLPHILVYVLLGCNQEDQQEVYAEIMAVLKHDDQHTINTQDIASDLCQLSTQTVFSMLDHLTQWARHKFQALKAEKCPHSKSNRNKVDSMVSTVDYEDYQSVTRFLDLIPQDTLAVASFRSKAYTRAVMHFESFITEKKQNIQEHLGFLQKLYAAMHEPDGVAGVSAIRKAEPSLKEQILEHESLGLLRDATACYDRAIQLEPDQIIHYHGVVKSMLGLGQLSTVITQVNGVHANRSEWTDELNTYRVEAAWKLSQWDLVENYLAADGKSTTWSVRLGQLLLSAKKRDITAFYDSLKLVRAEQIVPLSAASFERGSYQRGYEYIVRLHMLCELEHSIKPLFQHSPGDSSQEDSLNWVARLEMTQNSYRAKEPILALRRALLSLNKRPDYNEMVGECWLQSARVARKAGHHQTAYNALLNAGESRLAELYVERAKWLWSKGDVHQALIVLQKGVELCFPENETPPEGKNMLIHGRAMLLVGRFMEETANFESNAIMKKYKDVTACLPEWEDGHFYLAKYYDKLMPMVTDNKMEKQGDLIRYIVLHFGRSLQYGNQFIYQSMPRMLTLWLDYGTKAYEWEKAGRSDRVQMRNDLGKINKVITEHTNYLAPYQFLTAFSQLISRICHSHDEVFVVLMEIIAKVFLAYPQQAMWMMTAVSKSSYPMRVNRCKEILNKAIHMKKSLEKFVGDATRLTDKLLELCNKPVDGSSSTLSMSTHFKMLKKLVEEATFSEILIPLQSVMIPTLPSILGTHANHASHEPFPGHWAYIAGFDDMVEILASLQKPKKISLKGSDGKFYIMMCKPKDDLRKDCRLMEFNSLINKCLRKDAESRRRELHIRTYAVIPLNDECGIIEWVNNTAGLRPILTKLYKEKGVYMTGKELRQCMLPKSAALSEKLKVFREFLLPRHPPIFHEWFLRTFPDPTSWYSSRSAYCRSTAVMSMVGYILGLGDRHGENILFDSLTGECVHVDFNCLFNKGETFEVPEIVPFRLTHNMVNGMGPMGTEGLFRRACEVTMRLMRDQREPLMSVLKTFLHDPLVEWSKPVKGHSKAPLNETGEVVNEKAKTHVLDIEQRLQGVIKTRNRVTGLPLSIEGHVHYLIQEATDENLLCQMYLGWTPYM
Sequence of ATR kinase (Q8WXE1 whole entry partner): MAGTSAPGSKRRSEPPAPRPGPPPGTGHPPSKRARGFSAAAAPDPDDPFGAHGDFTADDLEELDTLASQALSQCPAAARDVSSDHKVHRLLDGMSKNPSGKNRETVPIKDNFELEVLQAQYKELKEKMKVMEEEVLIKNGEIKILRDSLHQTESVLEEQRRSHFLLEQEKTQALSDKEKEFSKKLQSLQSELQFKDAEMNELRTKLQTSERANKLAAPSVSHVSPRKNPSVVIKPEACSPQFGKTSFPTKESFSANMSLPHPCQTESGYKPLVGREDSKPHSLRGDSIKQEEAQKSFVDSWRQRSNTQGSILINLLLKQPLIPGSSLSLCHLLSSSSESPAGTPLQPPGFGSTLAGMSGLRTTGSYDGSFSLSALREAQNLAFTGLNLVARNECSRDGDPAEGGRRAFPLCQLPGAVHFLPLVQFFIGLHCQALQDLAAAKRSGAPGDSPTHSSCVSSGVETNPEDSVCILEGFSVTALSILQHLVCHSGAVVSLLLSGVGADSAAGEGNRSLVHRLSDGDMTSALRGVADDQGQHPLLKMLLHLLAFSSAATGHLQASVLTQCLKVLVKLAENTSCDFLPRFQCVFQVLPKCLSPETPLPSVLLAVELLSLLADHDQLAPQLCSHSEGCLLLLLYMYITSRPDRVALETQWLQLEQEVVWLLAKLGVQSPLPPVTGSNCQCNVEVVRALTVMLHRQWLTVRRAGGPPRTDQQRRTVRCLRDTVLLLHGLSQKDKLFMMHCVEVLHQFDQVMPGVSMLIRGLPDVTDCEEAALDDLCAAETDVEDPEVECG

IC50 (ATR kinase) | IC50 (TOV21G (ovarian cancer); [1]) | IC50 (MV4-11 (leukemia); [2]) | Structure (SMILES) | IC50 (TOV21G (ovarian cancer); TOV21G, 120 h) | IC50 (MV4-11 (leukemia); MV4-11, 120 h)
20 nM | 0.556 µM | 0.206 µM | Cc1nn(-c2cnccc2Cl)c(C)c1-c1cc(N2CCOC[C@H]2C)nc(-c2cc(F)cc3[nH]ccc23)n1 [Compound A10] |  | 
9 nM | 0.522 µM | 0.231 µM | Cc1nn(-c2cnccc2F)c(C)c1-c1cc(N2CCOC[C@H]2C)nc(-c2cc(F)cc3[nH]ccc23)n1 [Compound A14] |  | 
3 nM | 0.257 µM | 0.253 µM | Cc1nn(-c2cncc(F)c2)c(C)c1-c1cc(N2CCOC[C@H]2C)nc(-n2c(N)nc3ccccc32)n1 [Compound B12] |  | 
16 nM | 0.28 µM | 0.198 µM | Cc1nn(-c2cncc(C#N)c2)c(C)c1-c1cc(N2CCOC[C@H]2C)nc(-c2cc(F)cc3[nH]ccc23)n1 [Compound A9] |  | 
6 nM | 0.537 µM | 0.332 µM | Cc1nn(-c2cncc(C(F)F)c2)c(C)c1-c1cc(N2CCOC[C@H]2C)nc(-c2ccnc3[nH]ccc23)n1 [Compound A21] |  | 
1 nM | 0.208 µM | 0.451 µM | Cc1nn(-c2cncc(Cl)c2)c(C)c1-c1cc(N2CCOC[C@H]2C)nc(-c2ccnc3[nH]ccc23)n1 [Compound A18] |  | 
3 nM | 0.24 µM | 0.175 µM | Cc1nn(-c2cncc(O)c2)c(C)c1-c1cc(N2CCOC[C@H]2C)nc(-c2cccc3[nH]ccc23)n1 [Compound A23] |  | 
13 nM | 0.483 µM | 0.439 µM | CNc1nc2ccccc2n1-c1nc(-c2c(C)nn(-c3cccnc3)c2C)cc(N2CCOC[C@H]2C)n1 [Compound B6] |  | 
17 nM | 0.306 µM | 0.25 µM | CNc1nc2ccccc2n1-c1nc(-c2c(C)nn(-c3cncc(C#N)c3)c2C)cc(N2CCOC[C@H]2C)n1 [Compound B4] |  | 
14 nM | 0.423 µM | 0.656 µM | Cc1nn(-c2ccc(F)nc2)c(C)c1-c1cc(N2CCOC[C@H]2C)nc(-c2cc(F)cc3[nH]ccc23)n1 [Compound A6] |  | 
10 nM | 0.313 µM | 0.193 µM | Cc1nn(-c2cccnc2)c(C)c1-c1cc(N2CCOC[C@H]2C)nc(-c2cc(F)cc3[nH]ccc23)n1 [Compound A4] |  | 
30 nM | 0.647 µM | 0.778 µM | COc1ccc(-n2nc(C)c(-c3cc(N4CCOC[C@H]4C)nc(-c4cc(F)cc5[nH]ccc45)n3)c2C)cn1 [Compound A5] |  | 
2 nM | 0.234 µM | 0.107 µM | Cc1nn(-c2ccnnc2)c(C)c1-c1cc(N2CCOC[C@H]2C)nc(-c2cc(F)cc3[nH]ccc23)n1 [Compound A15] |  | 
1 nM | 0.166 µM | 0.082 µM | Cc1nn(-c2cccnn2)c(C)c1-c1cc(N2CCOC[C@H]2C)nc(-c2cc(F)cc3[nH]ccc23)n1 [Compound A16] |  | 
5 nM |  |  | Cc1nn(-c2ccc(=O)[nH]c2)c(C)c1-c1cc(N2CCOC[C@H]2C)nc(-n2c(NCCO)nc3ccccc32)n1 [Compound B13] |  | 
1 nM | 0.22 µM | 0.18 µM | Cc1nn(-c2cncc(C(N)=O)c2)c(C)c1-c1cc(N2CCOC[C@H]2C)nc(-c2cccc3[nH]ccc23)n1 [Compound A24] |  | 
69 nM | 0.212 µM | 0.519 µM | CC#Cc1cncc(-n2nc(C)c(-c3cc(N4CCOC[C@H]4C)nc(-n4c(NC)nc5ccccc54)n3)c2C)c1 [Compound B8] |  | 

IC50 (ATR kinase) | IC50 (TOV21G (ovarian cancer); [1]) | IC50 (MV4-11 (leukemia); [2]) | Structure (SMILES) | IC50 (TOV21G (ovarian cancer); TOV21G, 120 h) | IC50 (MV4-11 (leukemia); MV4-11, 120 h)
11 nM | 0.284 µM | 0.528 µM | Cc1c(-c2cc(N3CCOC[C@H]3C)nc(-c3ccnc4[nH]ccc34)n2)c(C(F)(F)F)nn1-c1cncc(F)c1 [Compound A20] |  | 
36 nM |  | 0.801 µM | CCc1cncc(-n2nc(C)c(-c3cc(N4CCOC[C@H]4C)nc(-c4cc(F)cc5[nH]ccc45)n3)c2C)c1 [Compound A12] |  | 
13 nM | 1.07 µM | 0.896 µM | Cc1nn(-c2cncc(F)c2)c(C)c1-c1cc(C23CCOCC2C3)nc(-c2cc(F)cc3[nH]ccc23)n1 (stereo not shown) [Compound C2] |  | 
62 nM | 0.544 µM | 0.549 µM | CNc1nc2ccccc2n1-c1nc(-c2c(C)nn(-c3ccc(OC)nc3)c2C)cc(N2CCOC[C@H]2C)n1 [Compound B7] |  | 
49 nM | 0.411 µM | 0.303 µM | CNc1nc2ccccc2n1-c1nc(-c2c(C)nn(-c3cncc(Cl)c3)c2C)cc(N2CCOC[C@H]2C)n1 [Compound B3] |  | 
9 nM | 0.274 µM | 0.382 µM | Cc1ncccc1-n1nc(C)c(-c2cc(N3CCOC[C@H]3C)nc(-c3cc(F)cc4[nH]ccc34)n2)c1C [Compound A8] |  | 
16 nM | 0.383 µM | 0.208 µM | CNc1nc2ccccc2n1-c1nc(-c2c(C)nn(-c3cnc(N)c(F)c3)c2C)cc(N2CCOC[C@H]2C)n1 [Compound B5] |  | 
16 nM | 0.667 µM | 0.632 µM | Cc1nn(-c2cncc(F)c2)c(C)c1-c1cc(C23CCOCC2C3)nc(-c2cccc3[nH]ccc23)n1 (stereo not shown) [Compound C3] |  | 
3 nM | 0.226 µM | 0.157 µM | CNc1nc2ccccc2n1-c1nc(-c2c(C)nn(-c3ccc(=O)[nH]c3)c2C)cc(N2CCOC[C@H]2C)n1 [Compound B9] |  | 
15 nM | 0.276 µM | 0.24 µM | Cc1nn(-c2cncc(F)c2)c(C)c1-c1cc(N2CCOC[C@H]2C)nc(-n2c(NCCO)nc3ccccc32)n1 [Compound B11] |  | 
7 nM | 0.53 µM | 0.46 µM | Cc1nn(-c2cnccn2)c(C)c1-c1cc(N2CCOC[C@H]2C)nc(-c2cc(F)cc3[nH]ccc23)n1 [Compound A25] |  | 
11 nM |  | 0.658 µM | COc1cncc(-n2nc(C)c(-c3cc(N4CCOC[C@H]4C)nc(-c4cc(F)cc5[nH]ccc45)n3)c2C)c1 [Compound A1] |  | 
22 nM | 0.278 µM | 0.133 µM | CNc1nc2ccccc2n1-c1nc(-c2c(C)nn(-c3ccc(C#N)nc3)c2C)cc(N2CCOC[C@H]2C)n1 [Compound B2] |  | 
6 nM | 0.33 µM | 0.1 µM | Cc1nn(-c2ccc(=O)[nH]c2)c(C)c1-c1cc(N2CCOC[C@H]2C)nc(-c2cc(F)cc3[nH]ccc23)n1 [Compound A7] |  | 
88 nM |  | 2.2 µM | Cc1nn(-c2cncc(C(F)(F)F)c2)c(C)c1-c1cc(N2CCOC[C@H]2C)nc(-c2cc(F)cc3[nH]ccc23)n1 [Compound A13] |  | 
8 nM | 0.397 µM | 0.635 µM | Cc1nn(-c2ccncc2)c(C)c1-c1cc(N2CCOC[C@H]2C)nc(-c2cc(F)cc3[nH]ccc23)n1 [Compound A2] |  | 

Structure (SMILES) | IC50 (ATR kinase) | IC50 (TOV21G (ovarian cancer); [1]) | IC50 (MV4-11 (leukemia); [2]) | IC50 (TOV21G (ovarian cancer); TOV21G, 120 h) | IC50 (MV4-11 (leukemia); MV4-11, 120 h)
Cc1nn(-c2cncc(F)c2)c(C)c1-c1nc(-c2cccc3[nH]ccc23)nc(N2CCOC[C@H]2C)n1 [Compound C1] | 18 nM |  |  | 0.349 µM | 0.903 µM
